# Results taken from patent publication US20150328193A1, “TREATMENT OF MTOR HYPERACTIVE RELATED DISEASES AND DISORDERS” (THE BRIGHAM AND WOMEN'S HOSPITAL, INC., priority 2012, published 2015).
# What was measured:
# 621-101 cells = experiment: Follow-up imaging of cell death/proliferation in 621-101 cells; format: cell-based, human
# Procedure: 621-101 cells were pretreated for two hours with either DMSO (top two panels) or rapamycin (20 nM) bottom two panels) followed by the addition of fresh DMSO (top left), fresh rapamycin (bottom left), chelerythrine chloride (1 uM, top right), or rapamycin and chelerythrine chloride (bottom right). […] 4× magnification.
# [1] = tested on: 621-101 cells (TSC2-null, derived from a LAM patient); experiment: High-throughput screen of known bioactives in 621-101 cells, ATP levels ([…] GLO) as cell viability, with or without rapamycin pretreatment; format: cell-based, human
# Procedure: Rapamycin was used at 20 nM and the screen compounds at 20 uM.
# Cells are then pretreated with either Rapamycin (20 nM) or DMSO control in duplicate for two hours. Compound libraries are then added at the ICCB and allowed to incubate for 48-72 h. […] Treatment with staurosporine (1-2 uM) represents a positive control for cell death.
# The inventors screened the Known Bioactives Collection at the ICCB which consists of approximately 7,000 compounds.
# protein kinase C (PKC) = conditions: cited from earlier work
# [2] = tested on: wild-type mouse embryonic fibroblasts (MEFs); experiment: Chelerythrine chloride treatment of wild-type mouse embryonic fibroblasts; format: cell-based; conditions: 10 uM, 30 hours
# [3] = tested on: Tsc2-null mouse embryonic fibroblasts (MEFs); experiment: Chelerythrine chloride treatment of Tsc2-null mouse embryonic fibroblasts; format: cell-based; conditions: 10 uM, 30 hours
structure (smiles),measurement,setting,value
COc1ccc2c(c[n+](C)c3c4cc5c(cc4ccc23)OCO5)c1OC [chelerythrine chloride],Effect on 621-101 cells in combination with rapamycin,"621-101 cells; 24 h, 1 uM, rapamycin 20 nM pretreatment two hours",effect on cells is reduced
same,621-101 cell proliferation,"621-101 cells; 24 h post drug exposure, 1 uM, DMSO pretreatment",inhibits 621-101 cell proliferation
same,621-101 cell proliferation,621-101 cells; 96 h post drug exposure,inhibits 621-101 cell proliferation
same,Effect alone versus in combination with rapamycin (single agent potential),"[1]; Rapamycin 20 nM, screen compounds 20 uM",protected by rapamycin
same,Inducing cell death in TSC2-null LAM cells as single agent,[1]; used individually in the absence of rapamycin,surprisingly effective at inducing cell death
same,IC50,protein kinase C (PKC),660 nM
same,Effect on wild-type MEFs,[2],minimal effect
same,Effect on Tsc2-null MEFs,[3],dramatic effect
same,Selectivity for Tsc2-null versus wild-type MEFs,[3],selective to Tsc2-null cells
